Data reported in patent US6949519B2, “Macrolide solvates” (Sandoz AG, priority 2000, dated 2005).

Tests used:
Format in all cases: physicochemical
[1] = Stability and comparison example: samples set out for 6 weeks at 75% relative humidity at elevated temperature; potency and degradation by HPLC, water by Karl Fischer, X-ray powder diffraction; conditions: for Degradation (%) / POTENCY (%): HPLC, anhydrous basis; for POTENCY (%): 75% relative humidity, temperature of 400 (so in the source); for WATER (%): Karl Fischer
Protocol: • 5.3% of water, and • 2.8% of water are set out for 6 weeks to an environment having a relative humidity of 75% at a temperature of 400. Potency (content) of azithromycin, azithromycin degradation and water content in the samples are determined in week 0, week 2, week 4 and week 6. Potency and degradation are determined on azithromycin anhydrous basis by HPLC. The water content is determined by the Karl Fischer method. Results are Obtained • for azithromycin comprising 5.3% of water as set out in TABLE 1 below, • for azithromycin comprising 2.8% of water as set out in TABLE 2 below:
The potency of azithromycin in % of each sample within the corresponding time period is set out in TABLE 1 and TABLE 2 under “Potency (%)”.
The degradation of azithromycin in % of each sample within the corresponding time period is set out in TABLE 1 and TABLE 2 under “Degradation (%).
The water content in % of each sample within the corresponding time period is indicated in TABLE 1 and TABLE 2 under “Water (%)”.

[2] = as above; conditions: 6 weeks under normal air humidity conditions at elevated temperatures
[3] = Water content (K. Fischer) and X-ray powder diffraction pattern at room temperature under normal air humidity conditions
Protocol: In the following examples all temperatures are in degree Centigrade and are uncorrected. The X-ray powder diffraction pattern of azithromycin in the form of a monohydrate obtained according to the following example corresponds to that of azithromycin in the form of a monohydrate. […] Water content (% w/w) is determined by the K. Fischer
To a suspension of 20 g of azithromycin in 83 ml of water, HCl is added until dissolution occurs. The solution obtained is filtrated, in order to remove undissolved particles, and the filtrate obtained is added dropwise to 103 ml of water whilst adjusting the pH to 10 to 11 by addition of 20% NaOH at a temperature of ca. 55° C. A solid precipitates, is filtrated off, washed and dried until a water content of 4.0 to 6.5% is achieved. 18.4 g of azithromycin in the form of a monohydrate in crystalline form are obtained. Water content: 6.0% Water content after 2 days at room temperature under normal air humidity conditions: 6.3% Water content after 13 days at room temperature under normal air humidity conditions: 6.3%

| SMILES | Degradation (%) ([1]; week 6, 75% humidity, 40° C.) | POTENCY (%) ([1]; week 0) | WATER (%) ([1]; week 0) | Degradation (%) ([1]; week 2, 75% humidity, 40° C.) | WATER (%) ([1]; week 2, 75% humidity, 40° C.) | Degradation (%) ([1]; week 4, 75% humidity, 40° C.) | WATER (%) ([1]; week 4, 75% humidity, 40° C.) | WATER (%) ([1]; week 6, 75% humidity, 40° C.) | POTENCY (%) ([1]; week 6) | also measured |
| --- | --- | --- | --- | --- | --- | --- | --- | --- | --- | --- |
| CC[C@H]1OC(=O)[C@H](C)[C@@H](O[C@H]2C[C@@](C)(OC)[C@@H](O)[C@H](C)O2)[C@H](C)[C@@H](O[C@@H]2O[C@H](C)C[C@H](N(C)C)[C@H]2O)[C@](C)(O)C[C@@H](C)CN(C)[C@H](C)[C@@H](O)[C@]1(C)O [azithromycin according to the present invention] [9-deoxo-9a-aza-9a-methyl-9a-homoerythromycin A] | ~0.1 | – | – | – | – | – | – | – | – | Water content compared with week 0 ([1]; 40° C., 75% humidity, within 4 weeks and even 6 weeks): remains substantially the same as in week 0; Time for which the X-ray powder diffraction pattern (crystalline structure) is maintained ([1]; normal air humidity conditions, even at elevated temperatures): at least 2 weeks |
| CC[C@H]1OC(=O)[C@H](C)[C@@H](O[C@H]2C[C@@](C)(OC)[C@@H](O)[C@H](C)O2)[C@H](C)[C@@H](O[C@@H]2O[C@H](C)C[C@H](N(C)C)[C@H]2O)[C@](C)(O)C[C@@H](C)CN(C)[C@H](C)[C@@H](O)[C@]1(C)O [azithromycin comprising 2.8% of water, 9-deoxo-9a-aza-9a-methyl-9a-homoerythromycin A, reference compound] | 6.6 | 99.7 | 2.8 | 2.5 | 2.8 | 6.1 | 3.3 | 3.6 | 91.6 | Degradation (%) ([1]; week 2, 75% humidity, 40° C., listed as azithromycin in the form of a monohydrate having a water content of 2.8% to 3.6%): 2.5%; Degradation (%) ([1]; week 6, 75% humidity, 40° C., listed as azithromycin in the form of a monohydrate having a water content of 2.8% to 3.6%): ~7% |
| CC[C@H]1OC(=O)[C@H](C)[C@@H](O[C@H]2C[C@@](C)(OC)[C@@H](O)[C@H](C)O2)[C@H](C)[C@@H](O[C@@H]2O[C@H](C)C[C@H](N(C)C)[C@H]2O)[C@](C)(O)C[C@@H](C)CN(C)[C@H](C)[C@@H](O)[C@]1(C)O [azithromycin comprising 5.3% of water, 9-deoxo-9a-aza-9a-methyl-9a-homoerythromycin A] | 0.1 | 99.8 | 5.3 | 0.1 | 5.3 | 0.1 | 5.3 | 5.3 | 99.5 | POTENCY (%) ([1]; week 2): 98.9%; POTENCY (%) ([1]; week 4): 99.5% |
| CC[C@H]1OC(=O)[C@H](C)[C@@H](O[C@H]2C[C@@](C)(OC)[C@@H](O)[C@H](C)O2)[C@H](C)[C@@H](O[C@@H]2O[C@H](C)C[C@H](N(C)C)[C@H]2O)[C@](C)(O)C[C@@H](C)CN(C)[C@H](C)[C@@H](O)[C@]1(C)O [Example, 9-deoxo-9a-aza-9a-methyl-9a-homoerythromycin A] | – | – | – | – | – | – | – | – | – | Crystallinity and X-ray powder diffraction pattern on storage [2]: maintains its crystallinity and its X-ray powder diffraction pattern; Degradation products on storage [2]: contains substantially no degration products; Water content ([3]; after 2 days at room temperature under normal air humidity conditions): 6.3%; Water content ([3]; after 13 days at room temperature under normal air humidity conditions): 6.3%; Water content ([3]; as obtained after drying, % w/w, K. Fischer): 6.0%; X-ray diffraction powder pattern ([3]; on day 1, on day 2 and on day 13): corresponds to the X-ray diffraction powder pattern of azithromycin in the form of a monohydrate |
